Holding throughout (test): relative viability (nuclei count vs DMSO), 5 days (fraction); higher = more cells survive
Compound in the assay “Idelalisib + Alpelisib”: CC[C@H](Nc1ncnc2[nH]cnc12)c1nc2cccc(F)c2c(=O)n1-c1ccccc1 [Idelalisib] + Cc1nc(NC(=O)N2CCC[C@H]2C(N)=O)sc1-c1ccnc(C(C)(C)C(F)(F)F)c1 [Alpelisib] (partner 2 µM)
The method in brief:
(§1)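 Nuclei were stained with Hoechst during a one-step fixation (final 0.05% Triton X-100, 1% formaldehyde, 1 ug/ml Hoechst) carried out 5 days after dosing, then counted on 4× images. The cells, lung cancer lines in 1536-well plates, had been dosed by pin tool the day after seeding with one drug alone or a fixed anchor-drug dose plus five library-drug doses (not always all listed) in √10 steps. Relative viability is the nuclei count in treated wells divided by that in vehicle wells, and each value is the median of duplicate plates.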

Compound in the assay “Pemetrexed + Vorinostat”: Nc1nc2[nH]cc(CCc3ccc(C(=O)N[C@@H](CCC(=O)O)C(=O)O)cc3)c2c(=O)[nH]1 [Pemetrexed] + O=C(CCCCCCC(=O)Nc1ccccc1)NO [Vorinostat] (partner 1 µM)
The method in brief: as §1

Compound in the assay “Pemetrexed + Phenformin”: Nc1nc2[nH]cc(CCc3ccc(C(=O)N[C@@H](CCC(=O)O)C(=O)O)cc3)c2c(=O)[nH]1 [Pemetrexed] + N=C(N)NC(=N)NCCc1ccccc1 [Phenformin] (partner 250 µM)
In a few lines:
as §1

Compound in the assay “Idelalisib + Bortezomib”: CC[C@H](Nc1ncnc2[nH]cnc12)c1nc2cccc(F)c2c(=O)n1-c1ccccc1 [Idelalisib] + CC(C)C[C@H](NC(=O)[C@H](Cc1ccccc1)NC(=O)c1cnccn1)B(O)O [Bortezomib] (partner 0.002 µM)
In a few lines:
as §1

In the case of UMC-11, the relative viability with Idelalisib + Alpelisib (first compound 0.04 µM) stood at 1.15; in the assay with Idelalisib + Alpelisib (first compound 0.1265 µM), 0.999; with Idelalisib + Alpelisib (first compound 0.4 µM), 0.966; with Idelalisib + Alpelisib (first compound 1.265 µM) it was 0.987; with Idelalisib + Alpelisib (first compound 4 µM) it was 1.05; with Pemetrexed + Vorinostat (first compound 0.002 µM), 0.425. Also, the relative viability is 0.355 with Pemetrexed + Vorinostat (first compound 0.006325 µM); 0.44 with Pemetrexed + Vorinostat (first compound 0.02 µM); 0.347 with Pemetrexed + Vorinostat (first compound 0.06325 µM); 0.35 with Pemetrexed + Vorinostat (first compound 0.2 µM); 0.325 in the assay with Pemetrexed + Phenformin (first compound 0.002 µM); 0.311 with Pemetrexed + Phenformin (first compound 0.006325 µM). Moreover, the relative viability amounted to 0.312 with Pemetrexed + Phenformin (first compound 0.02 µM); 0.334 in the assay with Pemetrexed + Phenformin (first compound 0.06325 µM); 0.347 with Pemetrexed + Phenformin (first compound 0.2 µM); 0.477 with Idelalisib + Bortezomib (first compound 0.04 µM); 0.858 in the assay with Idelalisib + Bortezomib (first compound 0.1265 µM); 0.744 in the assay with Idelalisib + Bortezomib (first compound 0.4 µM). The relative viability in the assay with Idelalisib + Bortezomib (first compound 1.265 µM) turned out to be 0.771; in the assay with Idelalisib + Bortezomib (first compound 4 µM), 0.521.

For the origin of these results see the supplement of paper PMC10307832.
